Earlier results in patent US20150272847A1, “Skin Engaging Shaving Aid Comprising A Thermally Resilient Sensate And A TRPA1 Receptor Inhibitor” (The Gillette Company, priority 2014, published 2015).

Settings: compared to menthol at 2 ppm

For CC(C)[C@@H]1CC[C@@H](C)C[C@H]1C(=O)Nc1ccc(CC#N)cc1 [N-[4-(cyanomethyl)phenyl]-(1R,2S,5R)-2-isopropyl-5-methylcyclohexanecarboxamide], the “Cooling as compared to menthol” value is listed as “about 10 ×”.
